Reference: ChEMBL document CHEMBL4613225, “Preparation and biological evaluation of BACE1 inhibitors: Leveraging trans-cyclopropyl moieties as ligand efficient conformational constraints” (Bioorg Med Chem, 2020)

Tests used:
[1] = Drug level in PDAPP V717F transgenic mouse brain at 10 mg/kg, sc; type: ADME, organism-based; conditions: in vivo, read-out: Ct
[2] = Drug level in PDAPP V717F transgenic mouse plasma assessed as unbound fraction at 10 mg/kg, sc; type: ADME, organism-based; conditions: in vivo
[3] = Metabolic stability in rat liver microsomes assessed as metabolized drug level after 30 mins in presence of NADPH by LC-MS/MS analysis; type: ADME, Microsome; conditions: read-out: Drug metabolism
[4] = Drug level in PDAPP V717F transgenic mouse brain at 30 mg/kg, sc; type: ADME, organism-based; conditions: in vivo, read-out: Ct
[5] = Drug level in PDAPP V717F transgenic mouse plasma assessed as unbound fraction at 30 mg/kg, sc; type: ADME, organism-based; conditions: in vivo
[6] = Ratio of unbound fraction in PDAPP V717F transgenic mouse brain to plasma at 10 mg/kg, sc; type: ADME, organism-based; conditions: read-out: K(p,uu,brain)
[7] = Drug level in PDAPP V717F transgenic mouse plasma at 10 mg/kg, sc; type: ADME, organism-based; conditions: in vivo
[8] = Drug level in PDAPP V717F transgenic mouse plasma at 100 mg/kg, sc; type: ADME, organism-based; conditions: in vivo
[9] = Drug level in PDAPP V717F transgenic mouse plasma assessed as unbound fraction at 100 mg/kg, sc; type: ADME, organism-based; conditions: in vivo
[10] = Drug level in PDAPP V717F transgenic mouse brain at 100 mg/kg, sc; type: ADME, organism-based; conditions: in vivo, read-out: Ct
[11] = Metabolic stability in mouse liver microsomes assessed as metabolized drug level after 30 mins in presence of NADPH by LC-MS/MS analysis; type: ADME, Microsome; conditions: read-out: Drug metabolism
[12] = Metabolic stability in dog liver microsomes assessed as metabolized drug level after 30 mins in presence of NADPH by LC-MS/MS analysis; type: ADME, Canis lupus familiaris, Microsome; conditions: read-out: Drug metabolism
[13] = Permeability in MDCK-MDR1 cells at 5 uM after 1 hr by LC-MS/MS analysis; type: ADME, cell-based, Canis lupus familiaris; conditions: dog, read-out: permeability
[14] = Ratio of unbound fraction in PDAPP V717F transgenic mouse brain to plasma at 100 mg/kg, sc; type: ADME, organism-based; conditions: read-out: K(p,uu,brain)
[15] = Metabolic stability in human pooled liver microsomes assessed as metabolized drug level after 30 mins in presence of NADPH by LC-MS/MS analysis; type: ADME, Microsome; conditions: read-out: Drug metabolism
[16] = Ratio of unbound fraction in PDAPP V717F transgenic mouse brain to plasma at 30 mg/kg, sc; type: ADME, organism-based; conditions: read-out: K(p,uu,brain)
[17] = Drug level in PDAPP V717F transgenic mouse plasma at 30 mg/kg, sc; type: ADME, organism-based; conditions: in vivo

concentration [1] | Cp(f) [2] | metabolised at 0.5 h [3] | concentration [4] | Cp(f) [5] | Kp uu [6] | concentration [7] | concentration [8] | Cp(f) [9] | concentration [10] | metabolised at 0.5 h [11] | metabolised at 0.5 h [12] | Papp at 1 h, 5 µM [13] | Kp uu [14] | metabolised at 0.5 h [15] | Kp uu [16] | concentration [17] | SMILES
63 nM | 17 nM | 98% | 176 nM | 41 nM | 0.18 | 133 nM | 815 nM | 102 nM | 389 nM | 98% | 79% | 36 ×10⁻⁶ cm/s | 0.16 | 31% | 0.17 | 326 nM | C[C@@H]1C[C@H]1COC(C)(C)[C@@H]1C[C@H]1[C@]12CN(c3ncccn3)C[C@H]1CSC(N)=N2
– | – | 55% | – | – | – | – | – | – | – | 33% | 28% | 8 ×10⁻⁶ cm/s | – | 13% | – | – | C[C@@H]1C[C@H]1CNC(=O)[C@@H]1C[C@H]1[C@]12CN(c3ncccn3)C[C@H]1CSC(N)=N2
